The subject of experiment [1] is AML cells. Kind of experiment: Cell death by Annexin V flow cytometry. It is filed as cell-based, human. As for the experimental part:
Cell Cycle and Apoptosis. To assess cell cycle, we performed the 5-ethynyl-2′-deoxyuridine (EdU) incorporation assay using the Click-iT Plus EdU Alexa Fluor 647 kit as described in manufacturer's protocol (Life Technologies). Apoptosis analysis was determined using APC Annexin V (BD Bioscience) and 4′,6-Diamidino-2-Phenylindole, Dihydrochloride (DAPI) for DNA content. Both EdU and Annexin V stained cells were analyzed by flow cytometry and FlowJo software.
For orientation: In flow cytometry, cells or beads pass a laser one at a time.

The subject of experiment [2] is mouse AML cell line RN2 (MLL-AF9; Kras).
Protocol: ZIP model was used to calculate the delta-score of synergisms of the combination treatments. […] ZIP model was used to calculate the delta-score of synergisms of the combination treatments. […] ZIP model was used to calculate the delta-score of synergisms of the combination treatments.
Drug Treatment and IC50 Measurements. Cells were plated in 96-well plates and exposed to Venetoclax at concentrations ranging from 0.4 nM to 300 nM (for MOLM-13 and MV4-11), 150 nM to 10 μM (for Venetoclax-resistant cell lines and THP-1) with a minimum of three technical replicates per concentration per cell line. Cell viability was measured with the CellTiter-Glo reagent (Promega) according to manufacturer's instructions. Absolute viability values were converted to percentage viability versus DMSO control treatment, and then non-linear fit of log(inhibitor) versus response (three parameters) was performed in GraphPad Prism v7.0 to obtain the IC50 values. For Venetoclax and Azacitidine combined treatment, two drugs were mixed at the fixed ratio (Ven:Aza=1:4) before diluting to certain concentrations.
Experiment [3] deals with human AML cell lines (MOLM-13, MV4-11, THP-1, KASUMI-1). The experiment in a line: Venetoclax/drug IC50 by CellTiter-Glo in sgRNA-transduced AML cell lines. It is filed as cell-based. The conditions noted are these: for Synergistic effect of CLPB ablation with the drug: MOLM-13 and MV4-11 with sgCLPB or sgRosa, 48 hrs. The source says:
(§1) Drug Treatment and IC50 Measurements.

The test system of experiment [4] is AML cells (THP-1, MOLM-13). Kind of experiment: Western blotting of AML cell lysates after drug treatment. It is filed as cell-based, human. The conditions noted are these: for CLPB protein levels in cells surviving drug treatment: MOLM-13, Venetoclax (IC50) 10 days, Idarubicin 10 nM 2 days. As to the method:
Biochemistry. Protein lysis was performed with RIPA buffer (Thermo Fisher Scientific) in presence of proteases inhibitor cocktail (PIC, Sigma) for 30 min at 4° C. After centrifugation at maximal speed for 20 min, supernatants were collected and protein concentration was determined using Bradford reagent (Bio-Rad).
Protein lysates (25-30 μg) were loaded onto 4%-12% Bis-Tris or 3%-8% Tris-acetate polyacrylamide gels (Thermo Fisher Scientific), transferred onto PVDF membranes (Millipore) and probed using the following antibodies: anti-CLPB polyclonal (1:2000, Proteintech, Cat #15743-1-AP), anti-TFAM (1:500, Santa Cruz, Cat #sc-376672), anti-OPA1 monoclonal (1:1000, BD Biosciences, Cat #612606), anti-SDHA monoclonal (1:2500, Abcam, Cat #ab14715), anti-HAX1 polyclonal (1:1000, Proteintech, Cat #11266-1-AP), anti-cytochrome c monoclonal (1:4000, Thermo Fisher Scientific, Cat #BDB556433), anti-caspase-3 monoclonal (1:1000, Proteintech, Cat #66470-2-Ig), anti-cleaved caspase-3 polyclonal (1:1000, Cell Signaling, Cat #9661S), anti-GRP75 monoclonal (1:1000, Santa Cruz, Cat #sc-133137), anti-TOM20 monoclonal (1:500, Santa Cruz, Cat #sc-17764), anti-p53 monoclonal (1:1000, Active Motif North America, Cat #39553), anti-BCL-2 polyclonal (1:200, R&D Systems, Cat #AF810-SP), anti-MCL1 polyclonal (1:1000, Proteintech, Cat #16225-1-AP), anti-BCL-XL monoclonal (1:500, R&D Systems, Cat #MAB894SP), anti-NOXA monoclonal (1:500, Abcam, Cat #ab13654), anti-GAPDH polyclonal (1:10000, Proteintech, Cat #10494-1-AP), anti-LAMIN A polyclonal (1:1000, Santa Cruz, Cat #sc-6214) and anti-ACTIN (1:10000, Millipore, Cat #MAB1501) antibodies. Isotype matched secondary antibodies were conjugated to horseradish peroxidase (GE Healthcare) and chemiluminescence was detected with ECL (Life Technologies) using films. Band densitometric analysis was performed using ImageJ (National Institutes of Health).
A general note: In western blotting, separated proteins are transferred to a membrane and probed.

For experiment [5], the system named is human AML cell lines (MOLM-13, KASUMI-1). Kind of experiment: IC50 curves of AMG176 in combination with Mdivi-1. It is filed as cell-based. The settings on record: AML cells.
Experiment [6] concerns Venetoclax-resistant (VR) MOLM-13 and MV4-11 cells. Kind of experiment: Venetoclax IC50 in parental versus Venetoclax-resistant (VR) AML cell lines. It is filed as cell-based, human. As to the method: For the generation of the Venetoclax-resistant cell lines, MOLM-13 and MV4-11 were cultured in media containing increasing doses of Venetoclax (from 5 nM to 1000 nM) for more than 8 weeks to achieve complete resistance to the drug.
as §1

Experiment [7] concerns AML cells (THP-1 and MOLM-13). Kind of experiment: Electron microscopy-based morphometric analysis of mitochondria. It is filed as cell-based, human. The settings on record: THP-1 4 μM, MOLM-13 17 nM, 16 hrs. As for the experimental part:
Transmission Electron Microscopy. Cultured cells were fixed in 0.1M sodium cacodylate buffer (pH 7.4) containing 2.5% glutaraldehyde and 2% paraformaldehyde for 2 hrs and post-fixed with 1% osmium tetroxide and 1% potassium ferrocyanide for one hour at 4° C. Then block was stained in 0.25% aqueous uranyl acetate, processed in a standard manner and embedded in EMbed 812 (Electron Microscopy Sciences, Hatfield, Pa.). Ultrathin sections (60 nm) were cut, mounted on copper grids and stained with uranyl acetate and lead citrate. Stained grids were examined under Philips CM-12 electron microscope and photographed with a Gatan (4k×2.7k) digital camera. For morphometric analysis, maximal cristae width was measured using Image J (NIH) as shown in FIG. 4A in at least 50 randomly selected mitochondria from a minimum of 15 cells/experiment.

Experiment [8] has as its system AML cells (THP-1, MOLM-13, MV4-11). Kind of experiment: Mitochondrial membrane potential by TMRM staining. It is filed as cell-based, human. The conditions noted are these: 16 hrs. As for the experimental part: Mitochondrial Membrane Potential. Mitochondrial membrane potential was monitored cytofluorimetrically using tetramethylrhodamine methyl ester (TMRM). Cells were loaded with 10 nM TMRM in presence of 2 μM Cyclosporin H in Hank's Balanced Salt Solution (HBSS) supplemented with 10 mM HEPES, 30 min at 37° C. When indicated, the experiments were performed in cells pre-treated with Venetoclax for 16 hours at the indicated concentrations.

Experiment [9] has as its system MOLM-13-Par or MOLM-13-VR xenografts. Kind of experiment: MOLM-13 parental and VR xenografts in NSG mice, Venetoclax by oral gavage. It is filed as in vivo, NOD SCID gamma (NSG) mice. As to the method:
Animal experiments. For in vivo experiments, Cas9 and luciferase-expressing parental and Venetoclax-resistant MOLM-13 cells were transduced with sgRosa or sgCLPB #1 constructs. At day 2 post-transduction, sgRNA positive cells (GFP) were sorted by FACS. 0.5 million sgRNA-expressing leukemia cells were intravenously injected into recipient NSG mice. For experiments that required drug administration, recipient mice were treated with vehicle or Venetoclax (100 mg/kg, Selleckchem) daily by oral gavage from day 6 to day 20. Venetoclax was prepared in 10% ethanol, 30% polyethyleneglycol-400 (Sigma), and 60% phosal 50 propylene glycol (Lipoid). Whole-body bioluminescent imaging was performed at indicated time points by intraperitoneally injection of Luciferin (Goldbio) at a 50 mg/kg concentration and imaging was performed after 5 mins using an IVIS imager. Bioluminescent signals (radiance) were quantified using Living Image software with standard regions of interests (ROI) rectangles. Peripheral blood of recipient NSG mice was collected at indicated time points after transplantation, and sgRNA positive cells (GFP+) were analyzed by flow cytometry. All animal experiments were performed in accordance with protocols approved by the New York University Institutional Animal Care and Use Committee (IACUC, ID: IA16-00008_TR1).
Animals. […]

For experiment [10], the system named is AML patients. The settings on record: cited from earlier work.

Structures are written as SMILES.

`CO[C@H]1/C=C/C[C@H](C)[C@@H](C)S(=O)(=O)NC(=O)c2ccc3c(c2)N(C[C@@H]2CC[C@H]21)C[C@@]1(CCCc2cc(Cl)ccc21)CO3` [AMG176, (3′R,4S,6′R,7′S,8′E,11′S,12′R)-7-chloro-7′-methoxy-11′,12′-dimethyl-13′,13′-dioxospiro[2,3-dihydro-1H-naphthalene-4,22′-20-oxa-13λ6-thia-1,14-diazatetracyclo[14.7.2.03,6.019,24]pentacosa-8,16(25),17,19(24)-tetraene]-15′-one]: the “Apoptosis induced by AMG176 upon CLPB depletion” value in experiment [1] (MOLM-13 and KASUMI-1 with sgCLPB, 22 hrs) is “enhances the apoptosis”.
In the case of `CCN(CC)CCCC(C)Nc1ccnc2cc(Cl)ccc12` (stereo not drawn) [Chloroquine, N′-(7-chloroquinolin-4-yl)-N,N-diethylpentane-1,4-diamine], the “IC50 of chloroquine upon addition of Venetoclax plus Azacitidine” value in [2] is “vice versa”.
As to `Nc1ccn([C@@H]2O[C@H](CO)[C@@H](O)[C@@H]2O)c(=O)n1` [Cytarabine, 4-amino-1-[(2R,3S,4S,5R)-3,4-dihydroxy-5-(hydroxymethyl)oxolan-2-yl]pyrimidin-2-one], the “Synergistic effect of CLPB ablation with the drug” value (“Synergistic effect” below) in experiment [3] is recorded as “no synergistic effect”.
As for `CC(=O)[C@]1(O)Cc2c(O)c3c(c(O)c2[C@@H](O[C@H]2C[C@H](N)[C@H](O)[C@H](C)O2)C1)C(=O)c1ccccc1C3=O` [Idarubicin, (7S,9S)-9-acetyl-7-{[(2R,4S,5S,6S)-4-amino-5-hydroxy-6-methyloxan-2-yl]oxy}-6,9,11-trihydroxy-5,7,8,9,10,12-hexahydrotetracene-5,12-dione], the “Synergistic effect” value in [3] is on record as “no synergistic effect”. Also, the “CLPB protein levels in cells surviving drug treatment” value in experiment [4] is reported as “did not lead to increase of CLPB protein levels”.
With `Cc1sc2c(c1C)C(c1ccc(Cl)cc1)=N[C@@H](CC(=O)OC(C)(C)C)c1nnc(C)n1-2` [JQ-1], in experiment [3], the “Synergistic effect” value is on record as “no synergistic effect”.
For the molecule `COc1cc(-n2c(=S)[nH]c3ccccc3c2=O)c(Cl)cc1Cl` [Mdivi-1, 3-(2,4-dichloro-5-methoxyphenyl)-2-sulfanylidene-1H-quinazolin-4-one], the “Combination effect with AMG176” value in experiment [5] is “synergistic effects with AMG176”.
In the case of `CC1(C)CCC(CN2CCN(c3ccc(C(=O)NS(=O)(=O)c4ccc(NCC5CCOCC5)c([N+](=O)[O-])c4)c(Oc4cnc5[nH]ccc5c4)c3)CC2)=C(c2ccc(Cl)cc2)C1` [Venetoclax, 4-[4-[[2-(4-chlorophenyl)-4,4-dimethylcyclohexen-1-yl]methyl]piperazin-1-yl]-N-[3-nitro-4-(oxan-4-ylmethylamino)phenyl]sulfonyl-2-(1H-pyrrolo[2,3-b]pyridin-5-yloxy)benzamide], in experiment [3] (CLPB sgRNAs versus sgRosa, all the cell lines tested, 48 hours), the “Venetoclax IC50 upon CLPB depletion” value is recorded as “significantly reduced the IC50”. Moreover, the “Venetoclax half maximal inhibitory concentration (IC50) upon deletion of BAX and PMAIP1” value in [3] (KASUMI-1 and MOLM-13 cells, 48 hours, Cell-TiterGlo) is on record as “significant increase”. Also, in experiment [3] (p53-KO clones B10 and B11, sgCLPB #1, 48 hours), the “Sensitivity of p53-deficient MOLM-13 to Venetoclax upon CLPB depletion” value is reported as “fully re-sensitize p53-deficient MOLM-13 to Venetoclax treatment”. In addition, in [3] (p53 wild-type MOLM-13 and p53-mutant KASUMI-1, 48 hours), the “Venetoclax IC50 with TP53 sgRNAs” value is on record as “increased the Venetoclax IC50 in p53 wild-type MOLM-13 but not p53-mutant KASUMI-1”. Also, the “Increase of Venetoclax concentration required for the 50% cell death in VR cell lines in respect to the original clones (Par.)” value in experiment [6] (MOLM-13 and MV4-11 VR versus parental) is “more than 100 fold”. The “Sensitivity of VR cells to Venetoclax upon ablation of CLPB” value in experiment [6] (VR MOLM-13 and MV4-11 with CLPB sgRNAs) is given as “significantly re-sensitized VR cells”. In addition, the “Mitochondrial ultrastructure after treatment” value in experiment [7] was “abnormal ultrastructure after Venetoclax treatment, characterized by a lower number of cristae and increase of the cristae lumen width”. The “Mitochondrial depolarization in CLPB-knockout cells (TMRM)” value in [8] (AML cells lacking CLPB versus control) is reported as “more prone to Venetoclax-induced mitochondrial depolarization”. The “Mitochondrial membrane potential (TMRM)” value in [8] (THP-1 4 μM, MOLM-13 35 nM) was “depolarization of mitochondria”. Moreover, the “Caspase-3 activation in AML cells lacking CLPB relative to wild-type” value in [4] (MOLM-13 35 nM, THP-1 4 μM, 16 hrs) was “prevalent caspase-3 activation”. Besides, the “CLPB protein levels in cells surviving drug treatment” value in experiment [4] is listed as “significant increase in the CLPB protein”. For the same molecule, in experiment [4] (THP-1, 4 μM, 16 hrs), the Caspase-3 cleavage result is given as “caspase activation”; the “OPA1 long and short forms (western blot)” value is “decrease in the long (L-OPA1) forms and accumulation of short (S-OPA1) forms of OPA1”. In experiment [1] (AML cells, 16 hrs), the “Cell death by Annexin-V staining” value was “cell death”. Besides, the “Cell death induced by Venetoclax upon depletion of OPA1” value in [1] (THP-1, 4 μM, 16 hrs) was “enhances cell death”. Besides, the “Annexin-V cell death in cells transduced with sgRNAs targeting CLPB versus negative controls” value in [1] (puromycin-selected AML cells, 16 hrs) is on record as “hypersensitivity of these cells to Venetoclax”. Further, the “Synergy of CLPB deletion with Venetoclax in vivo (bioluminescence, circulating GFP+ leukemic cells)” value in experiment [9] (100 mg/kg daily oral gavage day 6 to day 20) is “synergizes efficiently with Venetoclax in both Venetoclax-sensitive and resistant xenografts”. In addition, the “CLPB and OPA1 protein levels in wild-type tumors at late stages versus vehicle-treated mice” value in [9] (sorted GFP+ sgRosa leukemia cells from bone marrow) is “significantly elevated CLPB and OPA1 protein levels”. Further, in experiment [10] (Venetoclax with hypomethylating agents or low dose cytarabine), the “Patients that do not respond upfront” value is given as “approximately 30%”. Further, the “Response rates, single-agent Venetoclax in AML” value in experiment [10] (monotherapy) is “modest and rather short-lived”.

The values are drawn from patent publication US20220323376A1, “METHODS AND COMPOSITIONS FOR SENSITIZING CANCER CELLS TO DRUG-INDUCED APOPTOSIS” (New York University, priority 2019, published 2022).
